{"source": "ChEMBL document CHEMBL3046340", "about": "“In silico studies on 2,3-dihydro-1,5-benzothiazepines as cholinesterase inhibitors” (Med Chem Res, 2012)", "key": {"Cholinesterase": {"target": "Cholinesterase (Homo sapiens, UniProt P06276)", "sequence (P06276 whole entry)": "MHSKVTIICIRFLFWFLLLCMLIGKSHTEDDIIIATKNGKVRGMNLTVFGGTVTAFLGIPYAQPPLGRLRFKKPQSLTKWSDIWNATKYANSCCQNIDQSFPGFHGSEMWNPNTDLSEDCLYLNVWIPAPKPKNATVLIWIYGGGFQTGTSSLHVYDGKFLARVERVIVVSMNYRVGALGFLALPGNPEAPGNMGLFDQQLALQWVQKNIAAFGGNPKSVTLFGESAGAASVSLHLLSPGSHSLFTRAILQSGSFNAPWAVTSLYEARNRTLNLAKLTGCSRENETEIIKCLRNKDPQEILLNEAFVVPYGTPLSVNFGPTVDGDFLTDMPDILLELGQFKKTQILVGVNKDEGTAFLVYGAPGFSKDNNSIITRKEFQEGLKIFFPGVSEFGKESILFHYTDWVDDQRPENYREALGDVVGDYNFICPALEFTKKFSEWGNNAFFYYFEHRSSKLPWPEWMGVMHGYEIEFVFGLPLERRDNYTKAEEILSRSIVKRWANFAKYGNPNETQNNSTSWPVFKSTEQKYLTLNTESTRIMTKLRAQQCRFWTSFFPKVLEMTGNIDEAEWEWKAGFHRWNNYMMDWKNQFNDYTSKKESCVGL", "assay": "Inhibition of BChE (unknown origin) using butyrylthiocholine chloride as substrate preincubated for 15 min; call rule not given here"}, "Acetylcholinesterase": {"target": "Acetylcholinesterase (Electrophorus electricus, UniProt O42275)", "sequence (O42275 whole entry)": "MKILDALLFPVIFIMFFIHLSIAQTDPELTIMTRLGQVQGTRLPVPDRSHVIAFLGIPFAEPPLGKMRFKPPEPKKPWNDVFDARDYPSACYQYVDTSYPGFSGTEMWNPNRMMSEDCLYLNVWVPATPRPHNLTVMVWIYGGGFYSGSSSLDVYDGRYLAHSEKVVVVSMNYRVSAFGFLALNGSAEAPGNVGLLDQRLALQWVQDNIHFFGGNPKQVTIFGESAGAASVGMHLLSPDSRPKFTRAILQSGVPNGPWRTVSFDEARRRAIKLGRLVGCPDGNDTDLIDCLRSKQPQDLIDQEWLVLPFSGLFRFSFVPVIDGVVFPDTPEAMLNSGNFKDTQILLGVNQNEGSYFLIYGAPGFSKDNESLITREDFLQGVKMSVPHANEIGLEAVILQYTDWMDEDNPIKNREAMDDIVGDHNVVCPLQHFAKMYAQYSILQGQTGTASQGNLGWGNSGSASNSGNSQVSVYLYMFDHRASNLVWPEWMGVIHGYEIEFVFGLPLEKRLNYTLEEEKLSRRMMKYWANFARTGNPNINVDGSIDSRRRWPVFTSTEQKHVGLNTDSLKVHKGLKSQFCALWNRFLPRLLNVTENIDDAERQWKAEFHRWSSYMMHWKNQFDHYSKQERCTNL", "assay": "Inhibition of Electrophorus electricus (electric eel) acetylcholinesterase (AChE) using acetylthiocholine iodide as substrate preincubated for 15 min"}}, "data": [{"smiles": "O=[N+]([O-])c1ccc(C2CC(c3ccccc3)=Nc3ccccc3S2)cc1", "note": "(configuration not stated)", "values": [{"measurement": "IC50", "setting": "Cholinesterase; read-out: IC50", "result": 60, "unit": "µM"}, {"measurement": "IC50", "setting": "Acetylcholinesterase; read-out: IC50", "result": 102, "unit": "µM"}]}, {"smiles": "c1ccc(C2=Nc3ccccc3SC(c3ccccc3)C2)cc1", "note": "(configuration not stated)", "values": [{"measurement": "IC50", "setting": "Cholinesterase", "result": "Not Active"}, {"measurement": "IC50", "setting": "Acetylcholinesterase", "result": "Not Active"}]}, {"smiles": "Cc1ccc(C2CC(c3ccccc3)=Nc3ccccc3S2)cc1", "note": "(configuration not stated)", "values": [{"measurement": "IC50", "setting": "Cholinesterase", "result": "Not Active"}, {"measurement": "IC50", "setting": "Acetylcholinesterase", "result": "Not Active"}]}, {"smiles": "COc1ccc(C2CC(c3ccccc3)=Nc3ccccc3S2)cc1OC", "note": "(configuration not stated)", "values": [{"measurement": "IC50", "setting": "Cholinesterase", "result": "Not Active"}, {"measurement": "IC50", "setting": "Acetylcholinesterase", "result": "Not Active"}]}, {"smiles": "Oc1ccccc1C1=Nc2ccccc2SC(c2ccccc2)C1", "note": "(configuration not stated)", "values": [{"measurement": "IC50", "setting": "Cholinesterase", "result": "Not Active"}, {"measurement": "IC50", "setting": "Acetylcholinesterase", "result": "Not Active"}]}, {"smiles": "Oc1ccccc1C1=Nc2ccccc2SC(c2ccc(Cl)cc2)C1", "note": "(configuration not stated)", "values": [{"measurement": "IC50", "setting": "Cholinesterase", "result": "Not Active"}, {"measurement": "IC50", "setting": "Acetylcholinesterase", "result": "Not Active"}]}, {"smiles": "Oc1ccccc1C1=Nc2ccccc2SC(c2ccc(F)cc2)C1", "note": "(configuration not stated)", "values": [{"measurement": "IC50", "setting": "Cholinesterase", "result": "Not Active"}, {"measurement": "IC50", "setting": "Acetylcholinesterase", "result": "Not Active"}]}, {"smiles": "COc1cccc(C2CC(c3ccccc3O)=Nc3ccccc3S2)c1", "note": "(configuration not stated)", "values": [{"measurement": "IC50", "setting": "Cholinesterase", "result": "Not Active"}, {"measurement": "IC50", "setting": "Acetylcholinesterase", "result": "Not Active"}]}, {"smiles": "COc1ccc(C2CC(c3ccccc3O)=Nc3ccccc3S2)cc1", "note": "(configuration not stated)", "values": [{"measurement": "IC50", "setting": "Cholinesterase", "result": "Not Active"}, {"measurement": "IC50", "setting": "Acetylcholinesterase", "result": "Not Active"}]}, {"smiles": "Cc1ccc(C2CC(c3ccccc3O)=Nc3ccccc3S2)cc1", "note": "(configuration not stated)", "values": [{"measurement": "IC50", "setting": "Cholinesterase", "result": "Not Active"}, {"measurement": "IC50", "setting": "Acetylcholinesterase", "result": "Not Active"}]}, {"smiles": "Oc1ccccc1C1=Nc2ccccc2SC(c2ccc3c(c2)OCO3)C1", "note": "(configuration not stated)", "values": [{"measurement": "IC50", "setting": "Cholinesterase", "result": "Not Active"}, {"measurement": "IC50", "setting": "Acetylcholinesterase", "result": "Not Active"}]}, {"smiles": "Oc1cccc(C2=Nc3ccccc3SC(c3ccccc3)C2)c1", "note": "(configuration not stated)", "values": [{"measurement": "IC50", "setting": "Cholinesterase; read-out: IC50", "result": 142, "unit": "µM"}, {"measurement": "IC50", "setting": "Acetylcholinesterase; read-out: IC50", "result": 40, "unit": "µM"}]}, {"smiles": "COc1ccccc1C1CC(c2cccc(O)c2)=Nc2ccccc2S1", "note": "(configuration not stated)", "values": [{"measurement": "IC50", "setting": "Acetylcholinesterase", "result": "Not Active"}]}, {"smiles": "COc1ccc(C2CC(c3cccc(O)c3)=Nc3ccccc3S2)cc1OC", "note": "(configuration not stated)", "values": [{"measurement": "IC50", "setting": "Acetylcholinesterase", "result": "Not Active"}]}, {"smiles": "O=[N+]([O-])c1ccc(C2CC(c3cccc(O)c3)=Nc3ccccc3S2)cc1", "note": "(configuration not stated)", "values": [{"measurement": "IC50", "setting": "Cholinesterase", "result": "Not Active"}, {"measurement": "IC50", "setting": "Acetylcholinesterase", "result": "Not Active"}]}, {"smiles": "Cc1ccc(C2CC(c3cccc(O)c3)=Nc3ccccc3S2)cc1", "note": "(configuration not stated)", "values": [{"measurement": "IC50", "setting": "Acetylcholinesterase; read-out: IC50", "result": 49.8, "unit": "µM"}]}, {"smiles": "Oc1cccc(C2=Nc3ccccc3SC(c3cccnc3)C2)c1", "note": "(configuration not stated)", "values": [{"measurement": "IC50", "setting": "Cholinesterase", "result": "Not Active"}, {"measurement": "IC50", "setting": "Acetylcholinesterase", "result": "Not Active"}]}, {"smiles": "Oc1cccc(C2=Nc3ccccc3SC(c3cccs3)C2)c1", "note": "(configuration not stated)", "values": [{"measurement": "IC50", "setting": "Acetylcholinesterase; read-out: IC50", "result": 5.9, "unit": "µM"}]}, {"smiles": "Oc1cccc(C2=Nc3ccccc3SC(c3ccc(Cl)cc3)C2)c1", "note": "(configuration not stated)", "values": [{"measurement": "IC50", "setting": "Cholinesterase; read-out: IC50", "result": 76.9, "unit": "µM"}, {"measurement": "IC50", "setting": "Acetylcholinesterase; read-out: IC50", "result": 18.8, "unit": "µM"}]}, {"smiles": "CN(C)c1ccc(C2CC(c3cccc(O)c3)=Nc3ccccc3S2)cc1", "note": "(configuration not stated)", "values": [{"measurement": "IC50", "setting": "Acetylcholinesterase", "result": "Not Active"}]}, {"smiles": "Oc1cccc(C2=Nc3ccccc3SC(c3cccc(O)c3)C2)c1", "note": "(configuration not stated)", "values": [{"measurement": "IC50", "setting": "Acetylcholinesterase; read-out: IC50", "result": 71.1, "unit": "µM"}]}, {"smiles": "Oc1cccc(C2=Nc3ccccc3SC(c3ccccc3Cl)C2)c1", "note": "(configuration not stated)", "values": [{"measurement": "IC50", "setting": "Cholinesterase", "result": "Not Active"}, {"measurement": "IC50", "setting": "Acetylcholinesterase", "result": "Not Active"}]}, {"smiles": "O=[N+]([O-])c1cccc(C2CC(c3cccc(O)c3)=Nc3ccccc3S2)c1", "note": "(configuration not stated)", "values": [{"measurement": "IC50", "setting": "Cholinesterase", "result": "Not Active"}, {"measurement": "IC50", "setting": "Acetylcholinesterase", "result": "Not Active"}]}, {"smiles": "Oc1cccc(C2=Nc3ccccc3SC(c3cccc(Cl)c3)C2)c1", "note": "(configuration not stated)", "values": [{"measurement": "IC50", "setting": "Acetylcholinesterase", "result": "Not Active"}]}, {"smiles": "Oc1cccc(C2=Nc3ccccc3SC(c3ccccc3F)C2)c1", "note": "(configuration not stated)", "values": [{"measurement": "IC50", "setting": "Cholinesterase", "result": "Not Active"}, {"measurement": "IC50", "setting": "Acetylcholinesterase; read-out: IC50", "result": 70.6, "unit": "µM"}]}, {"smiles": "Oc1ccc(C2CC(c3cccc(O)c3)=Nc3ccccc3S2)cc1", "note": "(configuration not stated)", "values": [{"measurement": "IC50", "setting": "Cholinesterase", "result": "Not Active"}, {"measurement": "IC50", "setting": "Acetylcholinesterase", "result": "Not Active"}]}, {"smiles": "COc1cc(C2CC(c3cccc(O)c3)=Nc3ccccc3S2)ccc1O", "note": "(configuration not stated)", "values": [{"measurement": "IC50", "setting": "Cholinesterase", "result": "Not Active"}, {"measurement": "IC50", "setting": "Acetylcholinesterase", "result": "Not Active"}]}]}
